Results as given in US5952354A, “Tris carbamic acid esters: inhibitors of cholesterol absorption” (priority 1993, dated 1999).
Where two headings read alike, the source gives them in different places.

Legend:
[1] = tested on: acyl-coenzyme A: cholesterol acyltransferase (ACAT); test: inhibition of acyl-coenzyme A: cholesterol acyltransferase (intracellular cholesterol esterification, procedure of Ross et al.); type: cell-based; details: for IC50: read-out: ACAT IC50
Description: 1. The ability of the compounds of this invention to inhibit acyl-coenzyme A: cholesterol acyltransferase was established by initially showing that they inhibited intracellular cholesterol esterification by subjecting them to the standard experimental test procedure of Ross et al., J. Biol. Chem. 259, 814 (1984). The results are reported in the following table, where available, in terms of the percent inhibition at 25 μM and the IC50 (μM).

[2] = target: T1, cholesterol esterase (EC 3.1.1.13) (CEH) (Bos taurus, UniProt P30122); test: inhibition of cholesteryl ester formation by cholesterol esterase (CEH), procedure of Field; type: biochemical, bovine
T1 construct: purchased Sigma Company, St. Louis, Mo., U.S.A. C-1892; host or cells: bovine pancreas
T1 sequence (P30122 19-597): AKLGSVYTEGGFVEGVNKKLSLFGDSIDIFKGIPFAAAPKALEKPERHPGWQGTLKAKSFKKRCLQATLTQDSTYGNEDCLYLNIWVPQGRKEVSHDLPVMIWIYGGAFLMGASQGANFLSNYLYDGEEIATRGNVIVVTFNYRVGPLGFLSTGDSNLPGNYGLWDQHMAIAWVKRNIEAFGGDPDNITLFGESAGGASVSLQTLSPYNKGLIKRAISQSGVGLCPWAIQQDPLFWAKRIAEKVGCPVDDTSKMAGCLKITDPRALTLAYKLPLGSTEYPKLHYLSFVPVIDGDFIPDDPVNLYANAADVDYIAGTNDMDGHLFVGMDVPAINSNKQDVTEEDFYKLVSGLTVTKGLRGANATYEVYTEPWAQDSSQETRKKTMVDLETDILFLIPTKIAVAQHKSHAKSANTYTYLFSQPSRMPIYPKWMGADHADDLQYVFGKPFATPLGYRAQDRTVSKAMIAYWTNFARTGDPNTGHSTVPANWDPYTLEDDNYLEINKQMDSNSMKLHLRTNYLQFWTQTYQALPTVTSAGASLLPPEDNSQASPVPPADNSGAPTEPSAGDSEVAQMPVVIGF
Description: 2. The ability of the compounds of this invention to inhibit the formation of cholesteryl esters and thereby interfere with and prevent assimilation of cholesterol into the lymphatic system and ultimately the blood stream was established by incubating the compounds at 37C. with a mixture of cholesterol and oleic acid in the presence of buffered cholesterol esterase [(EC 3.1.1.13) Sigma Company, St. Louis, Mo., U.S.A., No. C-1892, from bovine pancreas] and measuring the amount of ester formed, according to the procedure of Field. J. of Lipid Research, 25, 389 (1984).

[3] = tested on: absorption of 14C-cholesterol; test: in vivo cholesterol absorption studies in normal rats ([4-14C] cholesterol); details: Rattus norvegicus, read-out: Effect on Absorption of 14C-chol. - 6 hr - normal, % Decrease; for inhibition in vivo at 3 mg/kg: 3 mg/kg oral; for inhibition in vivo at 10 mg/kg: 10 mg/kg oral
Description: The in vivo cholesterol absorption studies were conducted in normal rats by oral administration of the compound being tested in propylene glycol and olive oil followed by oral administration of [4-^14 C] cholesterol in propylene glycol and olive oil, otherwise following the procedure of Cayen et al., J. Lipid Res. 20 162 (1979). The serum radioactivity was measured at six hours after dosing. The results of this study are reported in the following table as percent decrease compared to control at the dose stated.

[4] = 37C, cholesterol and oleic acid, buffered cholesterol esterase from bovine pancreas, read-out: CEH IC50
[5] = normal rats, serum radioactivity at 6 hr, vs control
[6] = 20 mg/kg oral, normal rats, serum radioactivity at 6 hr, vs control

`CCCCCCNC(=O)OCCCCCCNC(=O)OC1CCN(C(=O)Oc2ccc(Oc3ccccc3)cc2)CC1` [Example 6, 4-[6-(Hexylcarbamoyloxy)-hexylcarbamoyloxy]-piperidine-1-carboxylic acid 4-phenoxyphenyl ester] was tested, and the “ACAT % inhibition at 25 μM” value [1] was 97%, the IC50 [1] was 1780 nM and the IC50 [2, 4] was 420 nM. The inhibition in vivo at 3 mg/kg [3, 5] was 59%.

`CCCCCCN(CCCCCC)C(=O)OCCCCCCNC(=O)OC1CCN(C(=O)Oc2ccc(Oc3ccccc3)cc2)CC1` [Example 7] was tested, and the “ACAT % inhibition at 25 μM” value [1] was 76%, the IC50 [1] was 6410 nM and the IC50 [2, 4] was 670 nM. The inhibition in vivo at 20 mg/kg [3, 6] was 42%.

For `O=C(NCCCCCCOC(=O)N1CCCCC1)OC1CCN(C(=O)Oc2ccc(Oc3ccccc3)cc2)CC1` [Example 8, 4-[6-(Piperidine-1-carbonyloxy)-hexylcarbamoyloxy]-piperidine-1-carboxylic acid 4-phenoxyphenyl ester], the “ACAT % inhibition at 25 μM” value [1] was 98%, the IC50 [1] was 2340 nM and the IC50 [2, 4] was 540 nM. For the same compound, the inhibition in vivo at 3 mg/kg [3, 5] was 65%.

`O=C(NCCCCCCOC(=O)N(Cc1ccccc1)Cc1ccccc1)OC1CCN(C(=O)Oc2ccc(Oc3ccccc3)cc2)CC1` [Example 9] was tested, and the “ACAT % inhibition at 25 μM” value [1] was 95%, the IC50 [1] was 1590 nM and the IC50 [2, 4] was 80 nM. The inhibition in vivo at 10 mg/kg [3, 5] was 49%.

For `CCCCCCNC(=O)OCCCCCCCCCCCCNC(=O)OC1CCN(C(=O)Oc2ccc(Oc3ccccc3)cc2)CC1` [Example 10, 4-[12-(Hexylcarbamoyloxy)-dodecylcarbamoyloxy]-piperidine-1-carboxylic acid 4-phenxoyphenyl ester], the “ACAT % inhibition at 25 μM” value [1] was 83%, the IC50 [1] was 5000 nM and the IC50 [2] was 620 nM. The inhibition in vivo at 20 mg/kg ([3]; po, 6 h) was 22%.

In the case of `CCCCCCCN(Cc1ccc(CC(C)(C)C)cc1)C(=O)OCCCCCCNC(=O)OC1CCN(C(=O)Oc2ccc(Oc3ccccc3)cc2)CC1` [Example 11, 4-{6-[(4-(2,2-Dimethyl-propyl)-benzyl)-heptyl-carbamoyloxy]-hexyl-carbamoyloxy}-piperidine-1-carboxylic acid 4-phenoxyphenyl ester], the “ACAT % inhibition at 25 μM” value [1] is reported as 24%, the IC50 [2, 4] is reported as 28200 nM and the inhibition in vivo at 20 mg/kg [3, 6] is reported as 6%.

`O=C(NCCCCCCOC(=O)N1CCC2(CCCC2)CC1)OC1CCN(C(=O)Oc2ccc(Oc3ccccc3)cc2)CC1` [Example 12, 8-Aza-spiro[4,5]decane-8-carboxylic acid 6-{[1-(4-phenoxy-phenoxycarbonyl)-piperidine-4-oxycarbonyl]amino}-hexyl ester] was tested, and the “ACAT % inhibition at 25 μM” value [1] was 83%, the IC50 [1] was 1720 nM and the IC50 [2, 4] was 310 nM. It also gave an inhibition in vivo at 10 mg/kg [3, 5] of 76%.

`CCCCCCCC/C=C\CCCCCCCCNC(=O)OCCCCCCNC(=O)OC1CCN(C(=O)Oc2ccc(Oc3ccccc3)cc2)CC1` [Example 13] was tested, and the “ACAT % inhibition at 25 μM” value [1] was 47%, the IC50 [2, 4] was 15500 nM and the inhibition in vivo at 20 mg/kg [3, 6] was 20%.

For `CCCCCCCC/C=C\CCCCCCCCNC(=O)OCCCCCCCCCCCCNC(=O)OC1CCN(C(=O)Oc2ccc(Oc3ccccc3)cc2)CC1` [Example 14, (Z)-4-[12-(Octadec-9-enylcarbamoyloxy)-dodecylcarbamoyloxy]-piperidine-1-carboxylic acid 4-phenoxyphenyl ester], the “ACAT % inhibition at 25 μM” value [1] was 41%, the IC50 [2, 4] was greater than 100000 nM and the inhibition in vivo at 20 mg/kg [3, 6] was 2%.

For `CCCCCCNC(=O)OCCCNC(=O)OC1CCN(C(=O)Oc2ccc(Oc3ccccc3)cc2)CC1` [Example 16, 4-[3-(Hexylcarbamoyloxy)-propylcarbamoyloxy]-piperidine-1-carboxylic acid 4-phenoxyphenyl ester], the IC50 [2, 4] was 730 nM and the inhibition in vivo at 10 mg/kg [3, 5] was 68%.

`CCCCCCCCCNC(=O)OCCCNC(=O)OC1CCN(C(=O)Oc2ccc(Oc3ccccc3)cc2)CC1` [Example 18, 4-[3-(Nonylcarbamoyloxy)-propylcarbamoyloxy]-piperidine-1-carboxylic acid 4-phenoxyphenyl ester] gave an IC50 [2, 4] of 510 nM and an inhibition in vivo at 10 mg/kg [3, 5] of 50%.
